One experiment has as its system pS6RP. Kind of experiment: In-cell Western assay, pS6RP, U87MG cells. The format is cell-based. The conditions noted are these: Homo sapiens, U-87 MG, read-out: inhibition of pS6RP, IC50. As to the method: (§1) Cells from human prostate cancer cell line PC3 (American Type Culture Collection (ATCC), Manassas, Va. 20108 USA) were seeded at an optimal density of 22,000 cell/well in 96-well plates containing Ham's F12K medium (90 μL) and incubated overnight. The compound dilutions were carried out in 100% DMSO followed by a dilution in the medium. Test compounds were added in serial dilutions to the wells and incubated for 2 hours. The cells were washed and fixed with 4% paraformaldehyde. After incubation at room temperature for 1 hour in the dark, blocking was done for 2 hours at room temperature. […] IC50 values were calculated using a sigmoidal dose-response curve fit in GraphPad Prism® v5 software.
(§2) In-cell Western assays for pAkt(T308) and pS6RP were also carried out in a glioma cancer cell line with a PTEN null mutation (U87MG cells), in a similar manner to the protocol described above for PC3 cells, in order to assess the ability of the compounds to inhibit the Akt-pathway in a glioma cancer cell line. […] Compounds of the invention cause inhibition of pAkt(T308), pAkt(S473) and pS6RP in U87MG, BT474 and T47D cell lines as determined by these assays.

A further experiment relates to pAkt(T308). The experiment is described as follows: In-cell Western assay, pAkt(T308), U87MG cells. The experiment is classed as cell-based. The conditions noted are these: Homo sapiens, U-87 MG, read-out: inhibition of pAkt(T308), IC50. Here is the method: as §1, §2

Structures are written as SMILES.

One may read the IC50 as the concentration needed to halve the response being measured. On to `CC(=O)Nc1cccc(-c2cnc3c(N4CCOCC4)nc(-c4cnc(N)nc4)nc3c2)c1` [Example 3, N-(3-(2-(2-Aminopyrimidin-5-yl)-4-morpholinopyrido[3,2-d]pyrimidin-7-yl)-phenyl)acetamide], for which the IC50 with pS6RP and in the experiment on pAkt(T308) was less than 500 nM in each case.
